Like-named read-outs stand apart in the source and are kept apart here.
Experiments:
[1] = test system: spontaneous dilated cardiomyopathy (J2N-k) hamster model; experiment: Long-term (36 weeks) administration in J2N-k hamster model: cardiac function, survival rate; type: in vivo; conditions: 3.0 mg/kg
Procedure: ONO-1301 and (K) candesartan, which is ARB, were each individually orally administered to a δ-glycan-deficient spontaneous dilated cardiomyopathy (J2N-k) hamster model twice daily repeatedly for 36 weeks, after the onset of pathological condition (20 weeks old); and changes in cardiac function and survival rates in long-term administration were compared for evaluation. Specifically, echocardiographic measurement was performed after the onset of pathological condition (20 weeks old); the animals were grouped evenly based on the ejection fractions (EF values) and the body weights (Table 15), and each test substance was individually administered for 36 weeks.
The test was performed in the same manner as described in the section “1. Investigation of effects in spontaneous dilated cardiomyopathy (J2N-k) hamster model” above.
ONO-1301 was administered at 3 mg/kg twice per day. Candesartan was administered at 3 mg/kg once per day, and only vehicle was administered at the second administration. To the control group, vehicle (0.5% CMC-Na) was administered twice daily.

rats [2] = conditions: rats, cited from earlier work
dogs = conditions: 6-month toxicity study in dogs; cited from earlier work
[3] = test system: spontaneously hypertensive rats (SHR); conditions: oral 0.1, 1 and 10 mg/kg for 2 weeks; cited from earlier work
[4] = test system: spontaneous dilated cardiomyopathy (J2N-k) hamster model; experiment: Spontaneous dilated cardiomyopathy (J2N-k) hamster model, 8-week administration from 20 weeks of age (Tests 1-3): echocardiography, body weight
Procedure: The doses of pharmaceutical products were determined based on the no-observed-adverse-effect levels in a long-term toxicity study using rats. δ-Glycan-deficient spontaneous dilated cardiomyopathy (J2N-k) male hamsters (Japan SLC, Inc.) were delivered at 18 weeks of age. After a 2-week quarantine/acclimation, echocardiography was performed.
Each of the pharmaceutical products (A to K and O) was individually administered twice daily (at an interval of 8 hours or more) by oral gavage, and echocardiography was performed after 4 and 8 weeks (before dissection). Differences from the value before the start of administration (at the time of grouping) (amount of change: Δ) in each group were examined, and the cardiac function (EF value, FS %, etc.) was compared with that in the vehicle group (Group 1). Moreover, the heart was removed […] after the start of administration, and electron microscopy and RNA protein measurement were performed. Specimens for immunopathology were also collected and evaluated.
Each pharmaceutical product was individually suspended in 0.5% CMC-Na (sodium carboxymethylcellulose; Wako Pure Chemical Industries, Ltd.) before use, and administered. […] To Group 1 (control), 0.5% CNC-Na (vehicle) was administered.
Each pharmaceutical product was individually suspended in 0.5% CMC-Na (sodium carboxymethylcellulose; Wako Pure Chemical Industries, Ltd.) before use, and administered. Test substance G was suspended in distilled water before use, and administered.
Reason the doses were set (assuming that the adult body weight was 60 kg, the same amounts as the maximum clinical doses were set) • 1) The clinical dose of C (ozagrel; OZ) was 200 mg twice per day. The dose was thus set to 3.3 mg/kg twice per day. • 2) The clinical dose of D (cilostazol; CS) was 100 mg twice per day. The dose was thus set to 1.7 mg/kg twice per day. • 3) The clinical dose of E (pirfenidone; PF) was 600 mg three times per day, i.e., 1800 mg/day in total. The dose was thus set to 15 mg/kg twice per day. • 4) The clinical dose of G (nintedanib sulfonate; OB) was 150 mg twice per day. The dose was thus set to 2.5 mg/kg twice per day. • 5) The clinical dose of P (carvedilol; CV) was 10 mg twice per day. The dose was thus set to 0.17 mg/kg twice per day. • 6) Preparation 2 (PLGA⋅MS preparation of camostat; B⋅MS): the clinical dose of active substance camostat was 200 mg three times per day, i.e., 600 mg/day in total; thus, intermittent subcutaneous administration at a daily dose of 10 mg/kg once every 4 weeks, twice in total was set. The dose was 1/28 of the total oral dose amount.
The dose volume in oral administration was 5 mL/kg (the amount of liquid to be administered to each animal was calculated based on the most recent body weight), and administered by oral gavage using a polypropylene disposable syringe and a rat stomach tube.
The administration period of each pharmaceutical product was 8 weeks.

[5] = test system: mouse model of pulmonary embolism; conditions: oral pre-administration, cited from earlier work
[6] = cited from earlier work
rats [7] = experiment: Repeated oral administration toxicity study in rats (dose-setting basis); conditions: mg/kg twice per day, oral preparation
Text: The dose-setting basis for the doses of the test substances used in pharmacological tests is as described below.

[8] = test system: rat coronary artery complete ischemia model; experiment: Model of ischemia (MI) by rat coronary artery complete ligation (Tests 1 and 2): echocardiography, body weight
[9] = Test 1, p.o. b.i.d., NOAEL-based dose
[10] = MI Test 1, NOAEL doses, 7 Day, mean ± S.D.
[11] = MI Test 1, NOAEL doses, 14 Day, mean ± S.D.
[12] = MI Test 1, NOAEL doses, 29 Day, mean ± S.D.

CCOc1nc2cccc(C(=O)OC(C)OC(=O)OC3CCCCC3)c2n1Cc1ccc(-c2ccccc2-c2nn[nH]n2)cc1 (stereo not shown) [candesartan, Candesartan cilexetil]
EF compared with control group [1]: no longer significant in Week 30 and Week 36 | FS% compared with control group [1]: no longer significant in Week 36 | Survival rate [1]: rapid decrease in the survival rate was observed from 29 weeks | No-observed-adverse-effect level (rats [2]; 6 months): 10 mg/kg | No-observed-adverse-effect level (dogs): 20 mg/kg | Blood pressure [3]: reduced blood pressure | Plasma renin concentration [3]: increased the plasma renin concentration in a dose-dependent manner

O=C1CCc2cc(OCCCCc3nnnn3C3CCCCC3)ccc2N1 [Compound D, Cilostazol]
LVIDd 4 W ([4]; Test 1, p.o. b.i.d.): 7.1 mm | LVIDd 8 W ([4]; Test 1, p.o. b.i.d.): 7.5 mm | LVIDs 4 W ([4]; Test 1, p.o. b.i.d.): 5.9 mm | LVIDs 8 W ([4]; Test 1, p.o. b.i.d.): 6.3 mm | Body weight 1 W [4, 9]: 112.6 g | Body weight 2 W [4, 9]: 114.6 g | Body weight 3 W [4, 9]: 116.6 g | Body weight 4 W [4, 9]: 118.0 g | Body weight 5 W [4, 9]: 118.5 g | Cardiac function (EF, FS %) actual measured value and/or amount of change compared with control, 8 W value ([4]; Test 3, clinical dose): significant cardiac function improvement effect | Cardiac function (EF, FS %) actual measured value or change rate compared with control, 4 W value ([4]; Test 3, clinical dose): significant cardiac function improvement effect | Cardiac function improvement effect ([4]; Test 3, clinical dose, summary): cardiac function improvement effect was observed | Minimal effective dose (screening 2) ([4]; mg/kg twice per day, oral preparation): 1.7 mg/kg | No-observed-adverse-effect level (rats [2]; 13 weeks / 3 months): 30 mg/kg | Dose significantly inhibiting pulmonary embolus death ([5]; ADP-induced model): 30 mg/kg | Dose significantly inhibiting pulmonary embolus death ([5]; collagen-induced model): 10 mg/kg | Diarrhea cases ([6]; human, in vivo): 0.3% | Dizziness ([6]; human, in vivo): 0.5% | Headache (headache/heavy-headedness) cases ([6]; human, in vivo): 3.4% | Nausea cases (cilostazol: nausea/vomiting) ([6]; human, in vivo): 0.3% | Palpitations cases ([6]; human, in vivo): 0.7% | Cases with side effects (including laboratory test value abnormality) ([6]; share of cases evaluated for safety): 6.3% | Maximum no-observed-adverse-effect level (screening 1) (rats [7]): 30 mg/kg | Action on left ventricular systolic function ([8]; MI Test 1, 28-day repeated oral administration b.i.d., NOAEL-based doses): suppression action on the deterioration of left ventricular systolic function | Cardiac function test (% FS): actual measured EF value compared with control ([8]; MI Test 1, Day 7): significantly higher | Cardiac function test (% FS): amount of change in the EF value compared with control ([8]; MI Test 1, Day 7): not significantly higher | EF actual measured value compared with control ([8]; MI Test 1, Day 7): significantly higher | EF amount of change compared with control ([8]; MI Test 1, Day 7): not significantly higher | Cardiac function test (% FS): amount of change compared with control ([8]; MI Test 1, Day 29): significantly higher | Body weight ([8]; MI Test 1, NOAEL doses, 1 Day (grouping), mean ± S.D.): 232.4 ± 4.9 g | % FS: value of change compared with the value on Day 1 [8, 10]: -1% | EF: value of change compared with the value on Day 1 [8, 10]: -1% | % FS: value of change compared with the value on Day 1 [8, 11]: -2% | EF: value of change compared with the value on Day 1 [8, 11]: -3% | % FS: value of change compared with the value on Day 1 [8, 12]: -5% | EF: value of change compared with the value on Day 1 [8, 12]: -9%
